Data: patent publication US6245758A, “Methods of use for peroxynitrite decomposition catalysts, pharmaceutical compositions therefor” (priority 1996, dated 2001)
Counter-ions that a name gives are not always drawn.

How the values were obtained:
[1] = Stopped-flow kinetic analysis of catalytic decomposition of peroxynitrite by metal complexes; settings: pH = 7.4, 22° C.
Protocol: To screen metal complexes for peroxynitrite decomposition catalytic activity of the present invention, peroxynitrite is prepared and isolated as its sodium salt by the reaction of acidic hydrogen peroxide with sodium nitrite followed by rapid quenching with NaOH as set out by Halfpenny and Robinson, in J. Chem. So., 1952, 928-938. Peroxynitrite has an absorbance maximum at 302 nm with an extinction coefficient of 1670 M^-1 cm^-1. Therefore, it is possible to directly observe the decomposition of peroxynitrite by stop-flow spectrophotometric analysis by monitoring the decomposition of the absorbance at 302 nm. That is, such observation of the decomposition of peroxynitrite at a rate accelerated over the natural decomposition rate with the addition of the metal complex identifies a compound of the present invention.
Kinetic measurements were made on an OLIS Rapid Scanning Stopped-Flow Spectrometer (On-Line Instrument Systems Inc., Bogart, Ga.)) using the OLISRSM-1000 Operating system for data acquisition and manipulation.
Thus, in a typical experiment the natural background decomposition rate of sodium peroxynitrite was determined as follows. A 24 mM stock solution of sodium peroxynitrite in 50 mM NaOH is load into the small volume syringe and 100 mM potassium phosphate pH=7.4 is charged into the large volume syringe of the stopped-flow spectrophotometer. All stopped -flow measurements were made at 22 ° C. Injection of the solutions into the sample compartment results in ~25 fold dilution of the stock sodium peroxynitrite. […] To test for catalytic peroxynitrite decomposition activity, the metal complex was dissolved in 100 mM potassium phosphate buffer pH=7.4 and loaded into the large syringe and the decomposition of peroxynitrite was monitored as described above. The catalytic rate constant (kcat M-1 sec^-1) for the complexes tested was determined by varying the complex concentration and plotting kobs vs [complex] Table 1. The kobs were obtained from averages of three stopped flow analysis at each catalyst concentration.

[2] = tested on: carrageenan-induced paw edema; assay: Carrageenan-induced paw edema; format: in vivo, rat
Description: Carrageenan-induced paw edema. The effects of peroxynitrite catalysts in vivo were initially tested on the carrageenan-induced paw edema. The choice of using this in vivo model of inflammation was based on the knowledge that 1) the inflammatory response is blocked by NOS inhibitors and 2) by superoxide dismutase (SOD). This indicates the participation of both NO and of O2-. Male Sprague Dawley rats were purchased from Harlan Sprague-Dawley (Indianapolis, Ind.). Male Sprague Dawley rats (175-200 g) received a subplantar injection in the right hind paw of carrageenan (0.1 ml of a 1% suspension in 0.85% saline). Paw volume was measured by a plethysmometer immediately before the injection of carrageenan and then at hourly intervals from 1 to 6 h. Edema was expressed as the increase in paw volume (in ml) measured after carrageenan injection compared to the pre-injection value for individual animals.

RAW 264.7 cells = assay: Cell protection assay, Alamar Blue viability after peroxynitrite challenge; format: cell-based, murine; settings: PN 500 micromolar; RAW cells, FIG. 9 (H2 TMPyP and ZnTMPyP: data not shown)
Protocol: FIG. 8: Comparison of Ni and Fe Catalyst Protection of RAW Cells from PN(peroxynitrite)-mediated Injury. RAW 264.7 cells were plated at approximately 2×10^5 per well of a 96-well plate. […] Each condition represents the mean of 4 wells ±sem.
FIG. 9: Protection from PN-mediated RAW Cell Injury by Fe Catalysts. Cells were treated with 500 micromolar PN in the presence or the absence of the following catalysts: FeTMPyP, FeTMPS, FeTPPS. Cell viability was monitored as described in the text and figure legends 1, 2 and 3. Values represent the mean of 4 determinations ±sem.
Protocol for Cell Protection Assays using Peroxynitrite Decomposition Catalysts: A cell viability assay was established to rapidly assess the efficacy of peroxynitrite(PN) catalysts in protecting cells from PN25 mediated injury and death. The peroxynitrite challenge consisted of a pulse of synthetic PN added exogenously to cells. In order to better assess the efficacy of PN catalysts in protecting cells from PN-mediated damage, a quantity of peroxynitrite(in 50 mM NaOH) determined to cause maximal injury(100%) was added as an exogenous pulse to each well of cells in the presence or absence of catalyst. The NaOH vehicle was not toxic by itself.
Cells(RAW 264.7 cells or P815 mastocytoma cells; American Type Culture Collection, Rockville, Md.) were plated to confluence on 96-well tissue culture plates. Each well is washed twice with Dulbecco's phosphate buffered saline(DPBS; GIBCO BRL, Grand Island, N.Y.) to remove protein and other serum components which might react with the exogenous peroxynitrite. To each well is then added 200 μl of DPBS. PN is next placed into separate wells at increasing concentrations and cell viability monitored. The dose at which maximal cell death is attained is then utilized for the catalyst protection assessment.
Phosphate-buffered saline (200 uL) containing increasing concentrations of catalyst is next placed into individual wells of cells. The maximal dose of PN is subsequently administered to all wells of cells. After 15 minutes, the medium is removed from each well and the cells are either allowed to recover overnight in Earles minimum essential medium without phenol red and supplemented with 10% fetal bovine serum or alternatively the plate of cells is assayed that day for mitochondrial integrity using the Alamar Blue viability assay(Alamar Biosciences, Inc.; Sacramento, Calif.). In either case, cells are incubated at 37° C. in 5% CO2.
Cell injury is measured as follows. Briefly, 10% Alamar Blue(v/v) in Earles MEM with 10% FBS is added to each well of cells for 1-2h. Cell metabolism of the dye generates a fluorescent product which is directly related to the number of viable cells. Moreover, the production of the fluorescent metabolite is linear for over 2 h. The amount of fluorescent product in 100 μl of conditioned medium from each well of cells is then measured with an IDEXX fluorescent plate reader (gain setting of 1%) at an emission wavelength of 575 nm after exciting at 545 nm. Viability is either given as absolute fluorescent units or as a percent of the value obtained for untreated cells(100%).

[3] = 30 mg/kg i.v., 1 h post carrageenan
[4] = 30 mg/kg i.v., 2 h post carrageenan
[5] = 30 mg/kg i.v., 3 h post carrageenan
[6] = 30 mg/kg i.v., 4 h post carrageenan
[7] = 30 mg/kg i.v., 5 h post carrageenan
[8] = 30 mg/kg i.v., 6 h post carrageenan

| Molecule | kcat, catalytic rate constant for the decomposition of sodium peroxynitrite [1] | % Inhibition of Paw Edema [2, 3] [%] | % Inhibition of Paw Edema [2, 4] [%] | % Inhibition of Paw Edema [2, 5] [%] | % Inhibition of Paw Edema [2, 6] [%] | % Inhibition of Paw Edema [2, 7] [%] | % Inhibition of Paw Edema [2, 8] [%] | other results |
| --- | --- | --- | --- | --- | --- | --- | --- | --- |
| Cc1c(-c2c3nc(c(-c4c(C)c(S(=O)(=O)O)c(C)c(S(=O)(=O)O)c4C)c4ccc([nH]4)c(-c4c(C)c(S(=O)(=O)O)c(C)c(S(=O)(=O)O)c4C)c4nc(c(-c5c(C)c(S(=O)(=O)O)c(C)c(S(=O)(=O)O)c5C)c5ccc2[nH]5)C=C4)C=C3)c(C)c(S(=O)(=O)O)c(C)c1S(=O)(=O)O [Example H2TMPS, 5,10,15,20-tetrakis(3,5-disulfonatedmesityl)porphyrin octasodium salt] | Inactive | 0 | 0 | 0 | 0 | 0 | 0 | inhibition of edema formation ([2]; 30 mg/kg i.v.): failed to inhibit edema formation |
| COc1cccc(C=NCCN=Cc2cccc(OC)c2[O-])c1[O-].[Cl-].[Fe+3] [Fe(III)(3,3'MeO2 Salen)] | 50000 M⁻¹ s⁻¹ | – | – | – | – | – | – | – |
| O=C([O-])CC(O)(CC(=O)[O-])C(=O)[O-].[Fe+3] [Fe(III)Citrate, Iron(III)citrate, reference compound] | 15000 M⁻¹ s⁻¹ | – | – | – | – | – | – | – |
| O=C([O-])CN(CCN(CC(=O)[O-])CC(=O)[O-])CC(=O)[O-].[Fe+3] [Fe(III)EDTA, iron(III)EDTA, reference compound] | 20000 M⁻¹ s⁻¹ | – | – | – | – | – | – | – |
| CC(=O)[O-].O=S(=O)(O)c1ccc(-c2c3nc(c(-c4ccc(S(=O)(=O)O)cc4)c4ccc([n-]4)c(-c4ccc(S(=O)(=O)O)cc4)c4nc(c(-c5ccc(S(=O)(=O)O)cc5)c5ccc2[n-]5)C=C4)C=C3)cc1.[Fe+3] [Fe(III)TPPS, Acetato-5,10,15,20-tetrakis(4-sulfonatophenyl)porphyrin iron(III)] | 2.06e+06 M⁻¹ s⁻¹ | 0 | 27 | 25 | 30 | 34 | 33 | % Inhibition of Paw Edema ([2]; 3 mg/kg i.v., 1 h post carrageenan): 0%; % Inhibition of Paw Edema ([2]; 3 mg/kg i.v., 2 h post carrageenan): 29%; % Inhibition of Paw Edema ([2]; 3 mg/kg i.v., 3 h post carrageenan): 20%; % Inhibition of Paw Edema ([2]; 3 mg/kg i.v., 4 h post carrageenan): 20%; % Inhibition of Paw Edema ([2]; 3 mg/kg i.v., 5 h post carrageenan): 19%; % Inhibition of Paw Edema ([2]; 3 mg/kg i.v., 6 h post carrageenan): 5%; % Inhibition of Paw Edema ([2]; 10 mg/kg i.v., 1 h post carrageenan): 0%; % Inhibition of Paw Edema ([2]; 10 mg/kg i.v., 2 h post carrageenan): 17%; % Inhibition of Paw Edema ([2]; 10 mg/kg i.v., 3 h post carrageenan): 20%; % Inhibition of Paw Edema ([2]; 10 mg/kg i.v., 4 h post carrageenan): 23%; % Inhibition of Paw Edema ([2]; 10 mg/kg i.v., 5 h post carrageenan): 19%; % Inhibition of Paw Edema ([2]; 10 mg/kg i.v., 6 h post carrageenan): 20%; protection of cells from PN-mediated injury (RAW 264.7 cells): significant protection of cells |
| [Cl][Fe]([Cl])[Cl] [FeCl3, reference compound] | – | – | – | – | – | – | – | inhibition of edema formation ([2]; 5 mg/kg, n=6): failed to inhibit edema formation |
| CC(=O)[O-].Cc1c(-c2c3nc(c(-c4c(C)c(S(=O)(=O)[O-])c(C)c(S(=O)(=O)[O-])c4C)c4ccc([n-]4)c(-c4c(C)c(S(=O)(=O)[O-])c(C)c(S(=O)(=O)[O-])c4C)c4nc(c(-c5c(C)c(S(=O)(=O)[O-])c(C)c(S(=O)(=O)[O-])c5C)c5ccc2[n-]5)C=C4)C=C3)c(C)c(S(=O)(=O)[O-])c(C)c1S(=O)(=O)[O-].[Mn+3].[Na+].[Na+].[Na+].[Na+].[Na+].[Na+].[Na+].[Na+] [Mn(III)TMPS, Acetato 5,10,15,20tetrakis(3,5,disulfonatomesityl)porphyrin Manganese(III) octasodium salt] | 29000 M⁻¹ s⁻¹ | 0 | 0 | 0 | 0 | 0 | 0 | – |
| CC1=NCCCNCCCN=C(C)c2cccc1n2.[Cl-].[Cl-].[Ni+2] [Ni(CR)Cl2, reference compound] | Inactive | – | – | – | – | – | – | – |
| Cc1c(-c2c3nc(c(-c4c(C)c(S(=O)(=O)[O-])c(C)c(S(=O)(=O)[O-])c4C)c4ccc([n-]4)c(-c4c(C)c(S(=O)(=O)[O-])c(C)c(S(=O)(=O)[O-])c4C)c4nc(c(-c5c(C)c(S(=O)(=O)[O-])c(C)c(S(=O)(=O)[O-])c5C)c5ccc2[n-]5)C=C4)C=C3)c(C)c(S(=O)(=O)[O-])c(C)c1S(=O)(=O)[O-].[Na+].[Na+].[Na+].[Na+].[Na+].[Na+].[Na+].[Na+].[Ni+2] [Ni(II)TMPS, Acetato-5,10,15,20-tetrakis(3,5-disulfonatomesityl)porphyrin Nickel (II) octasodium salt] | 87200 M⁻¹ s⁻¹ | – | – | – | – | – | – | – |
| CC1=CC(C)=Nc2ccccc2[N-]C(C)=CC(C)=Nc2ccccc2[N-]1.[Ni+2] [Ni(II)[14]12eneN4] | 17000 M⁻¹ s⁻¹ | – | – | – | – | – | – | – |
| Cc1c(-c2c3nc(c(-c4c(C)c(S(=O)(=O)[O-])c(C)c(S(=O)(=O)[O-])c4C)c4ccc([n-]4)c(-c4c(C)c(S(=O)(=O)[O-])c(C)c(S(=O)(=O)[O-])c4C)c4nc(c(-c5c(C)c(S(=O)(=O)[O-])c(C)c(S(=O)(=O)[O-])c5C)c5ccc2[n-]5)C=C4)C=C3)c(C)c(S(=O)(=O)[O-])c(C)c1S(=O)(=O)[O-].[Na+].[Na+].[Na+].[Na+].[Na+].[Na+].[Na+].[Na+].[Zn+2] [ZnTMPS, reference compound] | – | 0 | 0 | 0 | 0 | 0 | 0 | – |
| MnTPPS [reference compound] | – | – | – | – | – | – | – | inhibition of edema formation ([2]; 30 mg/kg i.v.): failed to inhibit edema formation |
